Measured values from patent publication US20240342292A1, “Compounds for the Degradation of EGFR Kinase” (BeiGene Switzerland GmbH, priority 2021, published 2024).

Columns and labels:
Del19/T790M/C797S EGFR = assay: EGFR degradation HTRF assay in H1975-clone #28 (DTC) cells; assay type: cell-based; details: H1975 # 28 DTC (Del19/T790M/C797S), 16h treatment; for DC50: HTRF; for Dmax (%): maximum percentage of degradation
How it was run: (§1)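 Cells carrying only lentiviral mutant EGFR, since endogenous alleles were removed by CRISPR, received compounds on day 2 for 16 h. Final concentrations ran from 10 uM down in 5-fold steps over 8 doses. After lysis, EGFR levels were quantified by HTRF and DC50 derived by curve fitting.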

L858R/T790M/C797S EGFR = target: T1, L858R/T790M/C797S EGFR (Homo sapiens, UniProt P00533, C797S/L858R/T790M); assay: EGFR degradation HTRF assay in H1975-clone #25 (LTC) cells; assay type: cell-based; details: 16h treatment; for DC50: H1975 # 25-LTC (L858R/T790M/C797S), HTRF; for Dmax: NCI-H1975, H1975 # 25-LTC (L858R/T790M/C797S), maximum percentage of degradation
T1 construct: expressed in transfected cells; host or cells: H1975 clone #25 (lentiviral over-expression, endogenous EGFR knocked out by sgRNA)
How it was run: as §1

T1 sequence (P00533 25-1210 T790M/C797S/L858R): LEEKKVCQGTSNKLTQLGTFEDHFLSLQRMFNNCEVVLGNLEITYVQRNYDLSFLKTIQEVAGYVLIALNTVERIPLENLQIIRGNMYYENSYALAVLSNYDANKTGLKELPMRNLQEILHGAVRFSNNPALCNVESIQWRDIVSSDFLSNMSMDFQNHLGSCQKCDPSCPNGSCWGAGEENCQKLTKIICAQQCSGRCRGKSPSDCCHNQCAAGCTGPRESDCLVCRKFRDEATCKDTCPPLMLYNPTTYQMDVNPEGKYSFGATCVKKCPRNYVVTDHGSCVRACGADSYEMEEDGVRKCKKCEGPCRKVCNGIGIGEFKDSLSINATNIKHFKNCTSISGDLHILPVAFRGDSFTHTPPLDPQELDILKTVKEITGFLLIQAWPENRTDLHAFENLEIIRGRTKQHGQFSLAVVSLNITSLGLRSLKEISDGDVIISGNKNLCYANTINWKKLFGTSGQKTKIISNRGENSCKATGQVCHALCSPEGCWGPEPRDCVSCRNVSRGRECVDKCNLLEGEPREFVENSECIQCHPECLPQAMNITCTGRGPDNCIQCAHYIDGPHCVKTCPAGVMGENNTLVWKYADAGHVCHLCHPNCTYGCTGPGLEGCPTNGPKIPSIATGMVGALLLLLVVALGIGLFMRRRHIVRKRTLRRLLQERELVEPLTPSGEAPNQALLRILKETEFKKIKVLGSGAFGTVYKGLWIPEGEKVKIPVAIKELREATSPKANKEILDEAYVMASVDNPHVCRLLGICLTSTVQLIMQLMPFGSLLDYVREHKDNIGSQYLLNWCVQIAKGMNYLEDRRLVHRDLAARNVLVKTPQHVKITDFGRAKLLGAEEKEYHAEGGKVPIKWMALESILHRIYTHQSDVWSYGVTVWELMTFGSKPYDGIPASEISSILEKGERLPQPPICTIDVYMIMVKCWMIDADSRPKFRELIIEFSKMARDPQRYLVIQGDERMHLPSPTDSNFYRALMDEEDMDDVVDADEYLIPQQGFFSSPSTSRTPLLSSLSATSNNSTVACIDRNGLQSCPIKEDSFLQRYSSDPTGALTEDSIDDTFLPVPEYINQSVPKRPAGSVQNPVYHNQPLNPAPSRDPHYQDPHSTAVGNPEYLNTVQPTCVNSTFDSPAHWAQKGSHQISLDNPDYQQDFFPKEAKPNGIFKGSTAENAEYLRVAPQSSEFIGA

SMILES | DC50 (Del19/T790M/C797S EGFR) | DC50 (L858R/T790M/C797S EGFR) | Dmax (L858R/T790M/C797S EGFR) | Dmax (%) (Del19/T790M/C797S EGFR)
Cc1cc2cc(n1)-c1cnn(C)c1OCCC[C@@H](C)CN1/C(=N/C2=O)Nc2ccc(N3CC[C@H](C(=O)N4CCN(c5cc(F)c([C@H]6CCC(=O)NC6=O)c(F)c5)CC4)C3)cc21 [Example 358, (R)-3-(2,6-difluoro-4-(4-((S)-1-((R,E)-1^1,2^4,7-trimethyl-3-oxo-5^2,5^3-dihydro-1^1H,5^1H-11-oxa-4-aza-5(2,1)-benzo[d]imidazola-2(2,4)-pyridina-1(4,5)-pyrazolacycloundecaphane-5^6-yl)pyrrolidine-3-carbonyl)piperazin-1-yl)phenyl)piperidine-2,6-dione] | 1300 pM | 622 pM | 89.6% | 75.67%
Cc1cc2cc(n1)-c1cnn(C)c1OCCC[C@@H](C)CN1/C(=N/C2=O)Nc2ccc(C(=O)N(C)[C@H]3CCN(C4CN(c5cc(F)c([C@H]6CCC(=O)NC6=O)c(F)c5)C4)CC3(F)F)cc21 [Example 359, (R,E)-N—((S)-1-(1-(4-((R)-2,6-dioxopiperidin-3-yl)-3,5-difluorophenyl)azetidin-3-yl)-3,3-difluoropiperidin-4-yl)-N,1^1,2^6,7-tetramethyl-3-oxo-5^2,5^3-dihydro-1^1H,5^1H-11-oxa-4-aza-5(2,1)-benzo[d]imidazola-2(2,4)-pyridina-1(4,5)-pyrazolacycloundecaphane-5^6-carboxamide] | 751 pM | 841 pM | 87.1% | 83.57%
Cc1cc2cc(n1)-c1cnn(C)c1OCCC[C@@H](C)CN1/C(=N/C2=O)Nc2ccc(C(=O)N(C)C3CCN(CCc4cccc5c4C(C)(C)C(=O)N5[C@H]4CCC(=O)NC4=O)CC3)cc21 [Example 379, (R,E)-N-(1-(2-(1-((S)-2,6-dioxopiperidin-3-yl)-3,3-dimethyl-2-oxoindolin-4-yl)ethyl)piperidin-4-yl)-N,1^1,2^6,7-tetramethyl-3-oxo-5^2,5^3-dihydro-1^1H,5^1H-11-oxa-4-aza-5(2,1)-benzo[d]imidazola-2(2,4)-pyridina-1(4,5)-pyrazolacycloundecaphane-5^6-carboxamide] | 682 pM | 503 pM | 80.9% | 67.89%
Cc1cc2cc(n1)-c1cnn(C)c1OCCC[C@@H](C)CN1/C(=N/C2=O)Nc2ccc(N3C[C@H](C)N(C4CCN(c5cc(F)c([C@H]6CCC(=O)NC6=O)c(F)c5)CC4)C[C@H]3C)cc21 [Example 380, (R)-3-(4-(4-((2S,5R)-2,5-dimethyl-4-((R,E)-1^1,2^6,7-trimethyl-3-oxo-5^2,5^1-dihydro-1^1H,5^1H-11-oxa-4-aza-5(2,1)-benzo[d]imidazola-2(2,4)-pyridina-1(4,5)-pyrazolacycloundecaphane-5^6-yl)piperazin-1-yl)piperidin-1-yl)-2,6-difluorophenyl)piperidine-2,6-dione] | 2240 pM | 3350 pM | 80.2% | 76.83%
Cc1cc2cc(n1)-c1cnn(C)c1OCCC[C@@H](C)CN1/C(=N/C2=O)Nc2ccc(N3CCC(N4CCC(Oc5cc(F)c([C@H]6CCC(=O)NC6=O)c(F)c5)CC4)CC3)cc21 [Example 381, (R)-3-(2,6-difluoro-4-((1′-((R,E)-1^1,2^6,7-trimethyl-3-oxo-5^2,5^3-dihydro-1^1H,5^1H-11-oxa-4-aza-5(2,1)-benzo[d]imidazola-2(2,4)-pyridina-1(4,5)-pyrazolacycloundecaphane-5^6-yl)-[1,4′-bipiperidin]-4-yl)oxy)phenyl)piperidine-2,6-dione] | 1060 pM | 900 pM | 83.6% | 60.14%

Stronger by DC50 (Del19/T790M/C797S EGFR), values ahead:

DC50 (Del19/T790M/C797S EGFR) | DC50 (L858R/T790M/C797S EGFR) | Dmax (L858R/T790M/C797S EGFR) | SMILES | Dmax (%) (Del19/T790M/C797S EGFR)
656 pM | 470 pM | 84.9% | Cc1cc2cc(n1)-c1cnn(C)c1OCCC[C@@H](C)CN1/C(=N/C2=O)Nc2ccc(N3CCN(C4CCN(c5ccc(C6CCC(=O)NC6=O)nc5)CC4)CC3)cc21 (stereo partly drawn) [Example 373, 3-(5-(4-(4-((R,E)-1^1,2^6,7-trimethyl-3-oxo-5^2,5^1-dihydro-1^1H,5^1H-11-oxa-4-aza-5(2,1)-benzo[d]imidazola-2(2,4)-pyridina-1(4,5)-pyrazolacycloundecaphane-5^6-yl)piperazin-1-yl)piperidin-1-yl)pyridin-2-yl)piperidine-2,6-dione] | 69.22%
633 pM | 1120 pM | 86.4% | Cc1cc2cc(n1)-c1cnn(C)c1OCCC[C@@H](C)CN1/C(=N/C2=O)Nc2ccc(N3CCC(C(=O)N4CCC(Oc5cc(F)c([C@H]6CCC(=O)NC6=O)c(F)c5)CC4)CC3)cc21 [Example 364, (R)-3-(2,6-difluoro-4-((1-(1-((R,E)-1^1,2^6,7-trimethyl-3-oxo-5^2,53-dihydro-1^1H,5^1H-11-oxa-4-aza-5(2,1)-benzo[d]imidazola-2(2,4)-pyridina-1(4,5)-pyrazolacycloundecaphane-5^6-yl)piperidine-4-carbonyl)piperidin-4-yl)oxy)phenyl)piperidine-2,6-dione] | 75.27%
625 pM | 878 pM | 91.1% | Cc1cc2cc(n1)-c1cnn(C)c1OCCC[C@@H](C)CN1/C(=N/C2=O)Nc2ccc(N(C)C(=O)C3CCN(CCc4cc(F)c([C@H]5CCC(=O)NC5=O)c(F)c4)CC3)cc21 [Example 365, 1-(4-((R)-2,6-dioxopiperidin-3-yl)-3,5-difluorophenethyl)-N-methyl-N—((R,E)-1^1,2^6,7-trimethyl-3-oxo-5^2,5^3-dihydro-1^1H,5^1H-11-oxa-4-aza-5(2,1)-benzo[d]imidazola-2(2,4)-pyridina-(4,5)-pyrazolacycloundecaphane-5^6-yl)piperidine-4-carboxamide] | 80.74%
623 pM | 1310 pM | 87.8% | Cc1cc2cc(n1)-c1cnn(C)c1OCC[C@@H]1C[C@H]1CN1/C(=N/C2=O)Nc2ccc(N3CCC(C(=O)N4CCN(c5cc(F)c([C@H]6CCC(=O)NC6=O)c(F)c5)CC4)CC3)cc21 [Example 367, (R)-3-(4-(4-(1-((71R,72S,E)-1^1,2^6-dimethyl-3-oxo-5^2,5^3-dihydro-1^1H,5^1H-10-oxa-4-aza-5(2,1)-benzo[d]imidazola-2(2,4)-pyridina-1(4,5)-pyrazola-7(1,2)-cyclopropanacyclodecaphane-5^6-yl)piperidine-4-carbonyl)piperazin-1-yl)-2,6-difluorophenyl)piperidine-2,6-dione] | 80.77%
617 pM | 233 pM | 87.5% | Cc1cc2cc(n1)-c1cnn(C)c1OCCC[C@@H](C)CN1/C(=N/C2=O)Nc2ccc(C(=O)N(C)[C@@H]3CCN(C4CN(c5cc(F)c([C@H]6CCC(=O)NC6=O)c(F)c5)C4)C[C@@H]3F)cc21 [Example 382, (R,E)-N—((3S,4R)-1-(1-(4-((R)-2,6-dioxopiperidin-3-yl)-3,5-difluorophenyl)azetidin-3-yl)-3-fluoropiperidin-4-yl)-N,1^1,2^6,7-tetramethyl-3-oxo-5^2,5^3-dihydro-1^1H,5^1H-11-oxa-4-aza-5(2,1)-benzo[d]imidazola-2(2,4)-pyridina-1(4,5)-pyrazolacycloundecaphane-5^5-carboxamide] | 86.76%
614 pM | 643 pM | 87.5% | COC[C@H]1CN(C(=O)C2CCN(c3ccc4c(c3)N3C[C@H](C)CCCOc5c(cnn5C)-c5cc(cc(C)n5)C(=O)/N=C/3N4)CC2)CCN1c1cc(F)c([C@H]2CCC(=O)NC2=O)c(F)c1 [Example 363, (R)-3-(2,6-difluoro-4-((R)-2-(methoxymethyl)-4-(1-((R,E)-1^1,2^6,7-trimethyl-3-oxo-5^2,5^3-dihydro-1^1H,5^1H-11-oxa-4-aza-5(2,1)-benzo[d]imidazola-2(2,4)-pyridina-1(4,5)-pyrazolacycloundecaphane-5^6-yl)piperidine-4-carbonyl)piperazin-1-yl)phenyl)piperidine-2,6-Dione] | 78.54%
583 pM | 591 pM | 92.7% | Cc1cc2cc(n1)-c1cnn(C)c1OCCC[C@@H](C)CN1/C(=N/C2=O)Nc2ccc(N3CCN(C4CCN(c5cc(F)c([C@H]6CCC(=O)NC6=O)c(F)c5)CC4)CC3=O)cc21 [Example 374, (R)-3-(2,6-difluoro-4-(4-(3-oxo-4-((R,E)-1^1,2^6,7-trimethyl-3-oxo-5^2,5^3-dihydro-1^1H,5^1H-11-oxa-4-aza-5(2,1)-benzo[d]imidazola-2(2,4)-pyridina-1(4,5)-pyrazolacycloundecaphane-5^6-yl)piperazin-1-yl)piperidin-1-yl)phenyl)piperidine-2,6-dione] | 81.48%
539 pM | 372 pM | 91.8% | Cc1cc2cc(n1)-c1cnn(C)c1OCCC[C@@H](C)CN1/C(=N/C2=O)Nc2ccc(N3CCN(CCc4cc(F)c([C@H]5CCC(=O)NC5=O)c(F)c4)CC3=O)cc21 [Example 366, (R)-3-(2,6-difluoro-4-(2-(3-oxo-4-((R,E)-1^1,2^6,7-trimethyl-3-oxo-5^2,5^3-dihydro-1^1H,5^1H-11-oxa-4-aza-5(2,1)-benzo[d]imidazola-2(2,4)-pyridina-1(4,5)-pyrazolacycloundecaphane-5^6-yl)piperazin-1-yl)ethyl)phenyl)piperidine-2,6-dione] | 84.74%
